The values that follow come from patent publication US20260355182A1, “ISOQUINOLINE DERIVATIVE, SYNTHESIS METHOD THEREFOR, AND USE THEREOF” (Harbin Gloria Pharmaceuticals Co., Ltd., priority 2023, published 2026).

One data set relates to diabetic patients. The conditions noted are these: cited from earlier work.
A further data set has as its system patients. The conditions noted are these: cited from earlier work.
The next data set addresses T1, Pgk1 (Homo sapiens, UniProt P00558).
T1 sequence (P00558 1-417): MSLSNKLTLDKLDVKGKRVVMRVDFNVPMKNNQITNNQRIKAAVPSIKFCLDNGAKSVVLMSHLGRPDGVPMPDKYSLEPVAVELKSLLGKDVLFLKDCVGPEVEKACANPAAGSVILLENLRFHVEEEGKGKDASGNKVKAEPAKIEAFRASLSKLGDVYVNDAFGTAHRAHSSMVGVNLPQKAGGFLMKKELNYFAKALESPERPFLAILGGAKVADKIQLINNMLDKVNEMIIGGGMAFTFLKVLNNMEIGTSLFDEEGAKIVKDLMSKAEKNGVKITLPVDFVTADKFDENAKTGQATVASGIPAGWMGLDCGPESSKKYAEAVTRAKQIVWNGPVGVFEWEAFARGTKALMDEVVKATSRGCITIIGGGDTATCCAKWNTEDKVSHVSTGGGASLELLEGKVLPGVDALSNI
The data set can be described thus: In vitro biochemical Pgk1 enzymatic activity assay (NADH production). On the set-up: GAPDH-coupled NADH assay. Particulars: 1.6 mM GAP, 1 mM β-NAD, 1 mM ADP, 20 ng/μL GAPDH, pH 8.6, 10 minutes. As to the method:
Human Pgk1 cDNA was cloned into the pEASYTM-E2 vector (TransGen Biotech) containing a His tag. Protein expression was induced in BL21(DE3) chemocompetent cells (TransGen Biotech) with 0.5 mM IPTG. After lysing cells in extraction buffer (20 mM sodium phosphate, 500 mM NaCl, 5 mM imidazole, 5% glycerol, protease inhibitor cocktail, pH 7.9), the supernatant was purified with nickel beads (AdarBiotech). The His-tagged Pgk1 was eluted with the elution buffer (20 mM sodium phosphate, 500 mM NaCl, 80 mM imidazole, protease inhibitor cocktail, pH 7.9). The activity of Pgk1 can be measured by monitoring the rate of NADH production, as NADH accumulated as the reaction proceeded. Purified Pgk1-His protein ([…]) was added to the reaction buffer (20 mM Tris, 100 mM NaCl, 2 mM DTT, 0.1 mM MgSO4, 10 mM NaHPO4, pH 8.6), and the substrates (1.6 mM GAP, 1 mM β-NAD, 1 mM ADP, 20 ng/μL GAPDH) was added. […] After reaction for 10 minutes at room temperature, the absorbance wavelength at 339 nm was measured using a microplate reader (Molecular Devices, SpectraMax i3x), and this wavelength corresponds to NADH levels.

A further data set deals with rats. Particulars: combined administration of terazosin and propranolol; cited from earlier work.
In data set [1] the test system is phosphoglycerate kinase 1 (Pgk1). Particulars: cited from earlier work.
The test system of data set [2] is mouse and rat models of Parkinson's disease, Alzheimer's disease, multiple system atrophy. Particulars: cited from earlier work.
A further data set relates to db/db mice. As to the kind of experiment: Acute glucose-response assay in non-fasted db/db mice. Format: in vivo. The conditions noted are these: s.c., 2 h; TZ 0.5, liraglutide 0.6, T6 0.5 mg/Kg. Here is the method:
The db/db mice were used to evaluate the glucose-lowering activity of compound T6 in comparison with reference metabolic agents (TZ 0.5 mg/Kg, liraglutide 0.6 mg/Kg, T6 0.5 mg/Kg). In FIG. 15, A) for the acute glucose-response assay, drugs were administered to non-fasted db/db mice. Immediately after drug administration (s. c.), mice were deprived of food and water, and blood glucose levels were measured from tail blood samples 2 h later. The relative percentage change in blood glucose was calculated by comparing glucose levels before and after treatment in the same animal. […] HbA1c levels were then measured using a glycated hemoglobin A1c enzyme-linked immunosorbent assay, also referred to as a mouse HbA1c ELISA assay. […] Data are presented as mean±error bars, with individual circles representing individual animals. Statistical significance is indicated as P<0.001 (**) and P<0.0001 (***).

Another data set deals with Wild-type mice (C57BL/6). As to the kind of experiment: Blood glucose in wild-type mice. Format: in vivo. Particulars: 0.1 mg/kg i.p., C57BL/6, fasted 6 hours after administration. Here is the method: Wild-type mice (C57BL/6) aged 3 months to 4 months under normal feeding conditions were intraperitoneally injected with different drugs at 0.1 mg/kg. Mice injected with normal saline served as the control group. Mice were fasted for 6 hours after administration. Blood was collected from the tail of each mouse to measure blood glucose levels. Each group consisted of 9 mice.

A further data set has as its system SK-N-SH cells. As to the kind of experiment: Dose-effect relationship on cellular ATP levels in cultured SK-N-SH cells. It counts as cell-based, human. Here is the method: SK-N-SH cells were seeded in a 6-well plate at a density of 6×10^4 per well. Cells were cultured for 12 hours under 5% O2, and the drug was added. Cells were harvested after 48 hours. Cellular ATP levels were measured using a Promega ATP assay kit. The experiment was repeated 5 times to 7 times.

Data set [3] deals with MPTP-induced Parkinsonian mouse model. As to the kind of experiment: MPTP-induced Parkinsonian mouse model, rotarod and TH Western blot (T6). It counts as in vivo. Particulars: TZ, MPTP 20 mg/kg. As to the method: Mice were administered MPTP at 20 mg/kg to induce Parkinsonian motor impairment and dopaminergic neuronal injury. […] In FIG. 13, A) motor coordination and endurance were assessed using the rotarod test and are expressed as the time remaining on the rotating rod. […] Actin was used as a loading control. […] Data are presented as mean±error bars, with individual points representing biological replicates. Significance of one-way ANOVA analysis is indicated as P<0.05 (*), P<0.01 (**), and P<0.001 (***).
On the technique in general: In the rotarod test animals must keep their balance on a rotating rod.

A further data set has as its system primary mouse neurons. As to the kind of experiment: Cellular status and glucose metabolism-related gene expression in primary mouse neurons. Format: cell-based. The conditions noted are these: normoxic, 72 h; TZ 10 μM, T6 10 PM (so in the source). From the text: In FIG. 10, A) representative bright-field images show the cellular status of primary neurons after treatment. […] The analyzed genes included G6PD, HK2, LDHA, PDK1, PGK1, and SLC2A1/GLUT1. […] TZ treatment produced a similar but generally more moderate metabolic gene-response profile, including increased LDHA, PDK1, and SLC2A1/GLUT1 expression. […] Error bars indicate variation among measurements. […] The results support the use of T6 or related compounds as agents capable of regulating neuronal metabolic status and glucose metabolism-associated pathways.

Data set [4] relates to MPTP-induced Parkinson's disease model mice. The data set can be described thus: MPTP-induced mouse model of Parkinson's disease, rotarod and tyrosine hydroxylase Western blot. Particulars: terazosin 0.1 mg/Kg. It counts as in vivo. As to the method:
Male mice aged 3 months were used and fed normally. The acute MPTP modeling method (see Sonsalla P K, Heikkila R E. The influence of dose and dosing interval on MPTP-induced dopaminergic neurotoxicity in mice. Eur J Pharmacol 1986; 129(3): 339-45.) was employed. MPTP was injected intraperitoneally four times in total at a dose of 20 mg/kg body weight per injection, with a 2-hour interval between each injection. MPTP was dissolved in normal saline, and the control group received an equal dose of normal saline. T2 was dissolved in DMSO and diluted with normal saline to the desired concentration. Accordingly, equal doses of DMSO and normal saline were administered during the treatment. On the day of MPTP model establishment, mice were administered either T2 (treatment group) or DMSO (control group). Subsequently, mice in all groups were administered the corresponding drugs daily. Mouse behavior was tested using a rotarod (E103, UGO BASILE). First, mice were pre-trained for two consecutive days at a constant speed of 15 revolutions per minute (15 rpm) until they could stay on the rod for more than 60 seconds. On day 7 after MPTP injection, mice were tested on the rotarod in an accelerating mode (2 rpm to 45 rpm). The latency to fall from the rotarod was recorded, and the behavior was monitored by a camera. After the experiment, the mice were sacrificed, and the striatal brain tissue was harvested for Western blot assay. Tyrosine hydroxylase (TH) is a protein specifically expressed in dopaminergic neurons. Therefore, whether dopaminergic neurons were damaged can be determined by Western blot assay using an anti-TH antibody.

With `COc1cc2nc(N3CCN(C(=O)C4CCCO4)CC3)nc(N)c2cc1OC` (stereo not drawn) [Terazosin, terazosin], in the data set on diabetic patients, the “Blood glucose and lipid levels” value is “efficacy is extremely limited or ineffective”. The Side effects result with patients was “intraoperative floppy iris syndrome (IFIS), hypotension, fatigue, dizziness, syncope, and blurred vision”. On Pgk1 (role: activator), the “Concentration for best activation of Pgk1” value stood at 1 µM. Moreover, at Pgk1 (role: inhibitor, 100 μM), the “Effect on Pgk1 enzymatic activity at high concentration” value is “can inhibit Pgk1 enzymatic activity”. For the same compound, in the data set with rats, the “Blood glucose in rats” value is on record as “did not affect blood glucose in rats”. In addition, the “Effect on Pgk1, high concentration” value in data set [1] (high concentrations) is “can inhibit Pgk1”. The “Effect on Pgk1, low concentration” value in [1] (low concentrations) is “can activate Pgk1”. Besides, the “Binding to / activation of Pgk1” value in data set [1] (previous studies) is listed as “can activate Pgk1”. Also, in [1] (published studies), the “Dissociation of ATP from Pgk1 protein” value is “promoted the dissociation of ATP from the Pgk1 protein”. In [2], the “Therapeutic and prophylactic effects” value is “exerts therapeutic and prophylactic effects”. Further, in the data set with db/db mice, the “Acute change in blood glucose” value was “weaker acute effect”. Further, the Hypoglycemic effect result in the data set with Wild-type mice (C57BL/6) is reported as “did not exhibit a hypoglycemic effect”. Also, the “Inhibition of cell growth” value in the data set on SK-N-SH cells (50 μM, SK-N-SH cells) is “a tendency to inhibit cell growth”. Further, in the data set with SK-N-SH cells (doses 5, 10 and 50 μM, 48 hours, 5% O2), the “Optimal dose for cellular ATP levels” value was 10 µM. In addition, the “Rotarod performance (TZ)” value in [3] was “weaker improvement”. Moreover, the Neuronal cellular morphology/status entry in the data set on primary mouse neurons was “detectable changes in neuronal cellular morphology/status”. Besides, the “Motor ability (rotarod)” value in data set [4] (day 7 after MPTP) is given as “improved the motor ability of mice”. The “Tyrosine hydroxylase level / dopaminergic neurons” value in data set [4] (striatum, Western blot) is “exerted a protective effect on dopaminergic neurons”.
